A value given as a limit tells only on which side of the number the result lay.

The target in this test is T1, GCase (Homo sapiens, UniProt P04062).
T1 construct: endogenous in cells; host or cells: HeLa cells
T1 sequence (P04062 40-536): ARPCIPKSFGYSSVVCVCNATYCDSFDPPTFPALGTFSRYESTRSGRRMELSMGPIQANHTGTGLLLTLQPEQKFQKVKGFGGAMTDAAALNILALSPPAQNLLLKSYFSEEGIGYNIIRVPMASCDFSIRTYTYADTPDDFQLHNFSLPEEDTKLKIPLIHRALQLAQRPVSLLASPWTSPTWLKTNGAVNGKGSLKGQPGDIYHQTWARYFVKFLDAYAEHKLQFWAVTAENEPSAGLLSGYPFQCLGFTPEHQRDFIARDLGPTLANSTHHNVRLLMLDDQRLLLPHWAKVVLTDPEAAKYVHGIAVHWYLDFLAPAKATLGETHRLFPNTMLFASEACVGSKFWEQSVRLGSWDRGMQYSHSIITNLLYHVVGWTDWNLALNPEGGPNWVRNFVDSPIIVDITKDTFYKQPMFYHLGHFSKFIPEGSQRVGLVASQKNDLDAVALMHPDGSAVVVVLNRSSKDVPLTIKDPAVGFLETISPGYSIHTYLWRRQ
In words: activation of GCase in a live cell PFB assay in HELA cells. It counts as cell-based.

In general, EC50 refers to the midpoint of the concentration-response curve. Low values mean higher potency in that assay, high ones lower potency in that assay. `CC1CCC(COc2cccnc2C(F)(F)F)CN1c1cnc2cnn(CC(F)(F)F)c2n1` (stereo not drawn) [Compound 122, 6-(2-Methyl-5-(((2-(trifluoromethyl)pyridin-3-yl)oxy)methyl)piperidin-1-yl)-1-(2,2,2-trifluoroethyl)-1H-pyrazolo[3,4-b]pyrazine] showed an EC50 below 10 µM.

`C=CCn1ncc(CN2CCC(COc3ccc(OC)cc3)CC2)c1C` [Compound 469] gave an EC50 above 100 µM.

`COc1ccc(OCC2CCN(C(=O)c3c(C)cccc3OC)CC2)cc1` [Compound 481] had a concentration giving a half-maximal response (EC50) of 10 to 50 µM.

For `CCCCC[C@H]1CC[C@H](C(=O)N2CCCC(COc3ccccc3)C2)CC1` (stereo partly drawn) [Compound 178], the half-maximal effective concentration (EC50) is below 10 µM.

For the molecule `O=C(c1ccc(N2CCCCCC2)cc1)N1CCCC(COc2ccccc2)C1` (stereo not drawn) [Compound 156], the EC50 lay within 10 to 50 µM.

With `O=C(c1ccc(F)c(OC(F)(F)F)c1)N1CCCC(COc2ccccc2)C1` (stereo not drawn) [Compound 217], the EC50 lay within 10 to 50 µM.

In turn, `FC(F)Cn1ncc2ncc(N3CCC(COc4ccncc4C(F)(F)F)CC3)nc21` [Compound 308, 1-(2,2-Difluoroethyl)-6-(4-(((3-(trifluoromethyl)pyridin-4-yl)oxy)methyl)piperidin-1-yl)-1H-pyrazolo[3,4-b]pyrazine] registered a concentration giving a half-maximal response (EC50) below 10 µM.

Take `FC(F)Cn1ncc2ncc(N3CC4CC4(COc4cccc(C(F)(F)F)n4)C3)nc21` (stereo not drawn) [Compound 284, 3-[1-(2,2-Difluoroethyl)-1H-Pyrazolo[3,4-b]Pyrazin-6-Yl]-1-({[6-(Trifluoromethyl)Pyridin-2-Yl]Oxy}Methyl)-3-Azabicyclo[3.1.0]Hexane]: the concentration giving a half-maximal response (EC50) was 10 to 50 µM.

As for `C[C@@H]1C[C@H](CN(C)C23CC(C2)C3)CN(c2cnc3cnn(CC(F)F)c3n2)C1` [Compound 297], the EC50 is 10 to 50 µM.

For `CC(CSC(F)(F)F)C(=O)N1CCCC(COc2ccccc2)C1` (stereo not drawn) [Compound 133], the EC50 was above 100 µM.

In turn, `COCCn1ncc2ncc(N3CC(COc4cccnc4C(F)(F)F)CCC3C)nc21` (stereo not drawn) [Compound 123, 1-(2-Methoxyethyl)-6-(2-methyl-5-(((2-(trifluoromethyl)pyridin-3-yl)oxy)methyl)piperidin-1-yl)-1H-pyrazolo[3,4-b]pyrazine] showed a 50% effective concentration (EC50) below 10 µM.

`C[C@H]1C[C@@H](COc2cccnc2C(F)(F)F)CN(c2cnc3cnn(CC(F)F)c3n2)C1` [Compound 93, 1-(2,2-Difluoroethyl)-6-((3S,5R)-3-methyl-5-(((2-(trifluoromethyl)pyridin-3-yl)oxy)methyl)piperidin-1-yl)-1H-pyrazolo[3,4-b]pyrazine] came in with a half-maximal effective concentration (EC50) below 10 µM.

In turn, `CN1CCc2cc(C(=O)N3CCCC(COc4ccccc4)C3)ccc21` (stereo not drawn) [Compound 181] gave an EC50 of 10 to 50 µM.

As to `COc1ccc(OCC2CCN(Cc3nnc(C4CC(N)C4)n3C)CC2)cc1` (stereo not drawn) [Compound 473], the EC50 is above 100 µM.

In the case of `CC1CC(COc2cccnc2C(F)(F)F)CN(c2cncc(-c3nncs3)n2)C1` (single isomer, unassigned) [Compound 262b], the EC50 was below 10 µM.

For `FC(F)(F)c1ncccc1OC[C@@H]1[C@H]2CN(c3nccc(-c4nncs4)n3)C[C@@H]12` [Compound 121, (1R,5S,6r)-3-(4-(1,3,4-Thiadiazol-2-yl)pyrimidin-2-yl)-6-(((2-(trifluoromethyl)pyridin-3-yl)oxy)methyl)-3-azabicyclo[3.1.0]hexane], the concentration for a half-maximal effect (EC50) is 10 to 50 µM.

In the case of `CC1CCC(COc2cccnc2C(F)(F)F)CN1c1cnc2cnn(CC3COC3)c2n1` (stereo not drawn) [Compound 118, 6-(2-Methyl-5-(((2-(trifluoromethyl)pyridin-3-yl)oxy)methyl)piperidin-1-yl)-1-(oxetan-3-ylmethyl)-1H-pyrazolo[3,4-b]pyrazine], the EC50 is below 10 µM.

Take `O=C(c1cc(CC2CC2)on1)N1CCCC(COc2ccccc2)C1` (stereo not drawn) [Compound 188]: the EC50 was above 100 µM.

Regarding `COc1ccc(OCC2CCN(C(=O)Nc3ccc(C#N)cc3F)CC2)cc1` [Compound 443], the 50% effective concentration (EC50) is 50 to 100 µM.

Consider `CC(=O)N1CCC(c2cc3ncc(N4CCCC(COc5ccccc5C)C4)nc3n2C)CC1` (stereo not drawn) [Compound 86, 1-(4-(5-Methyl-3-(3-((o-tolyloxy)methyl)piperidin-1-yl)-5H-pyrrolo[2,3-b]pyrazin-6-yl)piperidin-1-yl)ethan-1-one], for which the half-maximal effective concentration (EC50) was 10 to 50 µM.

Molecule `O=C(C(c1ccccc1)c1ccccc1)N1CCC(Oc2ccc(C(F)(F)F)cn2)CC1` [Compound 387] returned an EC50 of 10 to 50 µM.

For the molecule `FC(F)Cn1ncc2ncc(N3C[C@@H]4[C@@H](COc5cccnc5C(F)(F)F)[C@@H]4C3)nc21` [Compound 1, (1R,5S,6S)-3-[1-(2,2-difluoroethyl)-1H-pyrazolo[3,4-b]pyrazin-6-yl]-6-({[2-(trifluoromethyl)pyridin-3-yl]oxy}methyl)-3-azabicyclo[3.1.0]hexane], the concentration giving a half-maximal response (EC50) is below 10 µM.

For `Cn1c(-c2ccccc2)c(C(=O)N2CCCC(COc3ccccc3OC(F)(F)F)C2)c2nccnc21` (stereo not drawn) [Compound 236, (5-Methyl-6-phenyl-5H-pyrrolo[2,3-b]pyrazin-7-yl)(3-((2-(trifluoromethoxy)phenoxy)methyl)piperidin-1-yl)methanone], the EC50 fell in the range of 10 to 50 µM.

In turn, `CCn1c(=O)n(CC)c2nc(N3C[C@@H](C)C[C@H](COc4cccnc4C(F)(F)F)C3)cnc21` [Compound 288b, 1,3-Diethyl-5-((3S,5S)-3-methyl-5-(((2-(trifluoromethyl)pyridin-3-yl)oxy)methyl)piperidin-1-yl)-1,3-dihydro-2H-imidazo[4,5-b]pyrazin-2-one] gave a 50% effective concentration (EC50) of 10 to 50 µM.

Turning to `N#Cc1cc(C(F)(F)F)cnc1OC1CCN(C(=O)c2ccc3cc[nH]c3c2)CC1` [Compound 332, 2-((1-(1H-Indole-6-carbonyl)piperidin-4-yl)oxy)-5-(trifluoromethyl)nicotinonitrile], the EC50 lay within 10 to 50 µM.

`Cn1c(-c2ccc(F)cc2)cc2ncc(C(=O)N3CCCC(COc4cccnc4C(F)(F)F)C3)nc21` (stereo not drawn) [Compound 58, (6-(4-fluorophenyl)-5-methyl-5H-pyrrolo[2,3-b]pyrazin-3-yl)(3-(((2-(trifluoromethyl)pyridin-3-yl)oxy)methyl)piperidin-1-yl)methanone] showed a 50% effective concentration (EC50) of 10 to 50 µM.

The molecule `COc1ccc(OCC2CCN(C(=O)Cc3ccccn3)CC2)cc1` [Compound 466] had an EC50 above 100 µM.

With `O=C(Cc1ccc(OC(F)F)c(F)c1)N1CCCC(COc2ccccc2)C1` (stereo not drawn) [Compound 198], the EC50 is 10 to 50 µM.

For `O=C(c1ccc(-c2nnc[nH]2)cc1)N1CCC(OCc2ccccc2)CC1` [Compound 468], the EC50 lay within 50 to 100 µM.

With `O=C(CC12CCC(CC1)C2)N1CCCC(COc2ccccc2)C1` (stereo not drawn) [Compound 213], the EC50 was 10 to 50 µM.

`C[C@H]1CCN(c2cnc3cnn(CC(F)F)c3n2)C[C@H]1COc1cccnc1C(F)(F)F` [Compound 48b, 1-(2,2-difluoroethyl)-6-((3S,4S)-4-methyl-3-(((2-(trifluoromethyl)pyridin-3-yl)oxy)methyl)piperidin-1-yl)-1H-pyrazolo[3,4-b]pyrazine] gave an EC50 above 100 µM.

Consider `O=C(c1cc2cccc(Cl)c2s1)N1CCCC(COc2ccccc2)C1` (stereo not drawn) [Compound 218], for which the concentration giving a half-maximal response (EC50) is 10 to 50 µM.

`Cn1c(-c2cccc(C(F)(F)F)n2)nc2nc(N3C[C@@H]4[C@@H](COc5cc(F)cc(F)c5)[C@@H]4C3)cnc21` [Compound 227, 5-((1R,5S,6r)-6-((3,5-difluorophenoxy)methyl)-3-azabicyclo[3.1.0]hexan-3-yl)-1-methyl-2-(6-(trifluoromethyl)pyridin-2-yl)-1H-imidazo[4,5-b]pyrazine] had an EC50 below 10 µM.

These data come from US20240262832A1, “SMALL MOLECULE MODULATORS OF GLUCOCEREBROSIDASE ACTIVITY AND USES THEREOF” (Vanqua Bio, Inc., priority 2021, published 2024).
